In test [1] the target is T1, acetylcholinesterase from Electrophorus electricus (Electric eel) (Electrophorus electricus, UniProt O42275).
T1 construct: purchased Sigma (St. Louis, MO, USA)
Nature of the test: Inhibition assay for acetylcholinesterase activity (modified Ellman, ATCI/DTNB, 412 nm). It is filed as biochemical. As to the method:
The assay was performed with some modifications of Ellman et al (1961). […] The hydrolysis was monitored by the formation of yellow color (5-thio-2-nitrobenzoate anion) and the absorbance was measured at 412 nm by using spectrophotometer (UV-1800, Shimadzu, Japan).
The inhibitory activity assay was carried out with slight modifications. […] The inhibitory percentage of AChE was calculated as follows:
%inhibition = 100[A − B] − [C − D]/[A − B]
A is the OD without test substance, B is the OD without test substance and AChE, C is the OD with the test substance, D is the OD at 412 nm with the test substance and without AChE.
The relative percentage inhibition were estimated in triplicates and values were expressed as mean ± SEM (n = 3).
In general terms: DTNB colorimetry detects thiols as they appear.

For test [2], the target named is T2, immobilized AChE (Electrophorus electricus, UniProt O42275).
T2 construct: purchased Sigma (St. Louis, MO, USA)
T2 sequence (O42275 24-633): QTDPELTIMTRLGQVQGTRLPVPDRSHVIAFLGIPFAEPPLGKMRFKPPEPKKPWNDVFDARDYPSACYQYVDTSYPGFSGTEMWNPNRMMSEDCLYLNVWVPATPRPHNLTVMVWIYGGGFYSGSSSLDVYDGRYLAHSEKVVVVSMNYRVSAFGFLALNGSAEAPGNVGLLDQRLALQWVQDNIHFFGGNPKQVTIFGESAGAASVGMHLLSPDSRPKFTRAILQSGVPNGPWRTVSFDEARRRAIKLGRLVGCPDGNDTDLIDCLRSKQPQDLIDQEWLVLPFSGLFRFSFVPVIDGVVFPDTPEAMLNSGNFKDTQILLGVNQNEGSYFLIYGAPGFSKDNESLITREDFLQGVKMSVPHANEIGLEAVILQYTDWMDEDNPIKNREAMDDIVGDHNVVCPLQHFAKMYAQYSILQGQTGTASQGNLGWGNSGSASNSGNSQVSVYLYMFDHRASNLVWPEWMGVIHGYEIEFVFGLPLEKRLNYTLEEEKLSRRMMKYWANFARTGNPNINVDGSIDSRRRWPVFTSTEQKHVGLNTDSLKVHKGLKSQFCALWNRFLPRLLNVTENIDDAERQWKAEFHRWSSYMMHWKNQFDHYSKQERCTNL
Kind of test: biochemical. Conditions: for Kd / Ka1 / Kd1: 25°C. It is filed as binding. The method, then:
(§1) The protocol was followed with some modifications for enzyme immobilization, scouting and screening. SPR interactions were performed using a Biacore X100 optical biosensor (GE Healthcare Life Sciences, Bangalore, India) at 25°C. SPR analysis was carried out in PBS (200 mM, pH 7.7) from the analyte stock solutions, working solutions were diluted before passing on to the sensor surface. Data collection was done with the help of Biacore control software ver 2.0.2 Sets of experiments were carried out by monitoring change in the refractive index as a function of time under constant flow conditions. The relative amount of inhibitor bound to the AChE was determined by measuring the net increase in the refractive index over time compared to buffer as a control. During each run, there is an inline subtraction of the reference surface. Change is reported regarding response units (RU). The surface was washed with 5 cycles of running buffer (PBS) before next analytes.
(§2) As per pH scouting studies, AChE enzyme (100μg) was dissolved in 100 mM sodium acetate buffer pH 4.5 and was immobilized to the CM5 sensor chip by using the amine coupling method. The flow rate was kept constant during immobilization at 10 μlmin^-1, the surface of flow cell was activated by 1:1 mixture of 100 mM EDC and 100 mM NHS (both dissolved in water) for 7 min. AChE was injected for 7 min, and residual activated carboxymethyl groups were blocked on the sensor surface by 7 min injection of 1M ethanolamine, pH 8.5. In this particular study, flow cell 1 was blank immobilized (without protein) and used as a reference. Inline and double referencing was done for the buffer RU compensation.
(§3) Here the model describes this competitive situation and returns two sets of rate constants, one for each reaction taking into consideration two different analytes. The same buffer was used as running buffer. The constant flow rate was maintained throughout the kinetics (45 μlmin^-1), contact time and dissociation time was kept at 120 second (s). 10 mM glycine pH 3.0 for the time period of 30 s was used for regeneration. The experiments were carried at different concentrations of inhibitors.
(§4) The analysis of data was carried out with X100 evaluation software ver 2.0.2 and fitted to two state fit for individual molecules and for competitive experiments a heterogeneous analyte binding model.

Test [3] concerns the target T2, immobilized AChE. Nature of the test: biochemical. It is filed as binding. As to the method:
as §1, §2, §3, §4
Likewise, competitive experiments between different pairs was run by mixing 1:1 ratio of molecules and was fit to heterogeneous analyte model were studied. These experiments are helpful for determining the kinetics of a small molecule analyte in competition with other. Response contributions from both analytes are taken into account by considering molecular weight and concentrations of analytes. For competition binding experiments, pairing was done based on substrate-inhibitor and inhibitor-inhibitor interactions. […] Finally, naturally occurring crocin was also tested due to reports in the literature as a brain tonic for the Alzheimer's.

Test [4] has as its target T3, AChE (Electrophorus electricus, UniProt O42275).
T3 construct: purchased Sigma (St. Louis, MO, USA)
Kind of test: Far-UV circular dichroism of AChE with small molecules (secondary structure composition). The settings on record: single molecule; for Turns of AChE in presence of the molecule: AChE alone 0; for α helix of AChE in presence of the molecule: AChE alone 3.6±0.012; for Random of AChE in presence of the molecule: AChE alone 44.2±0.46; for β sheets of AChE in presence of the molecule: AChE alone 52.3±0.6. The method, then: Protein solutions 0.5 milligram per milliliter (mgml^-1) was prepared in 10 mM PBS at pH 7.7. Scans were performed at room temperature using 0.1 cm path length quartz cuvette with 8 s differential integration time at a scan rate of 100 nano meter per minute (nm min^-1). The CD spectrum of AChE enzyme individually and with different small molecules, also in combination was recorded. All spectra resulted from averaging three scans were corrected from the buffer blank. Results were expressed as molar ellipticity (°cm^2 dmol^-1) based on a mean amino acid residue weight (MRW) 110 Da for AChE. The molar ellipticity was determined as [θ obs] = {100 × (MRW) × θobs/cl}, where θ is the observed ellipticity in degrees at a given wavelength, c is the protein concentration in mgml^-1, and l is the path length in cm.
The relative percentages of the secondary structure elements were estimated in triplicates using Manager Suite software.
A general note: CD spectra are sensitive to the conformation of chiral molecules.

Test [5] deals with T3, AChE. Nature of the test: Fluorescence spectral studies of AChE incubated with molecules. The settings on record: excitation 365 nm, control emission maxima […] nm, molecules at IC50 concentration, 10 min. The method, then: The fluorescence intensities were recorded using 0.5 mgml^-1 protein concentration with an excitation wavelength of 365 nm and an emission wavelength of 400–700 nm with slit widths of 20 nm using MY14410002 fluorescence spectrophotometer (Agilent Technologies, USA) at 25°C. Protein solutions of 0.5 mgml^-1 were prepared in 10 mM PBS at pH 7.7. Scans were performed at room temperature using a 1 cm path length quartz cuvette with 1 s differential integration time at a scan rate of 600 nm min^-1. […] The subsequent changes in fluorescence were measured at this wavelength.
Fig 21 a) Intrinsic fluorescence spectra of the AChE incubated with molecules. […] Scans were performed at 37°C using a 1 cm path length quartz cuvette with 1 s differential integration time at a scan rate of 600 nm min^-1. The excitation wavelength was 365 nm and emission wavelength was in the range of 400–700 nm. b) Intrinsic fluorescence spectra of the AChE incubated with molecules. […] Scans were performed at 37° C using a 1 cm path length quartz cuvette with 1 s differential integration time at a scan rate of 600 nm min^-1. The excitation wavelength was 365 nm and the emission wavelength was in the range of 400–700 nm.

The test system of test [6] is AChE. The settings on record: cited from earlier work.
The test system of test [7] is AChE activity of the central nervous tissue of L.acuminata. Conditions: 0.04 mM tannic acid; cited from earlier work.
Setting [8] is: affinity fit, read-out: KD Affinity.
[9] abbreviates: two-state model, read-out: KD Kinetics.
[10] abbreviates: pair crocin (molecule 1) and ATCI (molecule 2), 1:1.
[11] abbreviates: pair tannic acid (molecule 1) and ATCI (molecule 2), 1:1.

Read-outs that look alike come from different tables or passages of the source.

T1 sequence (O42275 24-633): as above
T3 sequence (O42275 24-633): as above

What is called IC50 is the concentration that inhibits the measured activity by half. A word on the Kd: it is a measure of binding affinity in units of concentration. Turning to `CC(/C=C/C=C(\C)C(=O)O[C@@H]1O[C@H](CO[C@@H]2O[C@H](CO)[C@@H](O)[C@H](O)[C@H]2O)[C@@H](O)[C@H](O)[C@H]1O)=C\C=C\C=C(C)\C=C\C=C(/C)C(=O)O[C@@H]1O[C@H](CO[C@@H]2O[C@H](CO)[C@@H](O)[C@H](O)[C@H]2O)[C@@H](O)[C@H](O)[C@H]1O` [Crocin, crocin], the IC50 in test [1] is 920 ± 230 µM. For the same molecule, at immobilized AChE [2], the Ka2 was 0.003559±9.4×10^−5 1/s and the Kd2 is given as 0.005325±1.5×10^−4 1/s. Besides, the Kd on immobilized AChE [2] (setting [8]) is 475 µM. Besides, at immobilized AChE [2] (two-state model), the Ka1 came to 601700 ± 6700 M⁻¹ s⁻¹ and the Kd1 came to 472 ± 5.2 s⁻¹. The Kd on immobilized AChE [2] (setting [9]) turned out to be 470 µM. In addition, at immobilized AChE [3], the affinity, expressed as Kd, was 6020 µM; the “Molecule 2 ka2” value worked out at 1.010 ± 0.11 M⁻¹ s⁻¹; the “Molecule 2 kd2” value was 0.006083±1.1×10^−4 1/s. Moreover, at immobilized AChE [3] (setting [10]), the “Molecule 1 ka1” value was 3281±5.8×10^2 1/Ms and the “Molecule 1 kd1” value was 0.01684±8.5×10^−4 1/s. For the same molecule, at AChE [4], the “Turns of AChE in presence of the molecule” value (from here on “Turns of AChE”) is recorded as 0%, the “α helix of AChE in presence of the molecule” value (from here on “α helix of AChE”) is given as 5.7±0.042%, the “Random of AChE in presence of the molecule” value (“Random of AChE” below) is 43.8±0.41% and the “β sheets of AChE in presence of the molecule” value (from here on “β sheets of AChE”) is listed as 50.5±0.74%. Also, the “change in fluorescence emission of AChE compared to control enzyme” value (“change in fluorescence emission of AChE” for short) on AChE [5] is recorded as “redshift”.
With `Oc1cccc(O)c1O` [Pyrogallol, pyrogallol], the half-maximal inhibitory concentration (IC50) in test [1] amounted to 3800 ± 100 µM. Moreover, at immobilized AChE [2], the Ka2 is 0.01979±3.7×10^−4 1/s and the Kd2 was 0.002793±3.2×10^−5 1/s. Moreover, at immobilized AChE [2] (setting [8]), the Kd came to 119 µM. At immobilized AChE [2] (two-state model), the Ka1 stood at 200.1 ± 3.3 M⁻¹ s⁻¹ and the Kd1 amounted to 0.05082 ± 0.0015 s⁻¹. Also, the dissociation constant Kd on immobilized AChE [2] (setting [9]) turned out to be 31.4 µM. In addition, on AChE [4], the “Turns of AChE” value is reported as 0%, the “α helix of AChE” value was 0%, the “Random of AChE” value is recorded as 49.2±0.68% and the “β sheets of AChE” value was found to be 50.8±0.73%. Besides, the “change in fluorescence emission of AChE” value on AChE [5] is listed as “quenching”. The IC50 with AChE [6] (read-out: IC50) was 10.2 µM.
With `O.Oc1cc(O)c2c(c1)O[C@H](c1ccc(O)c(O)c1)[C@@H](O)C2` [catechin], the IC50 in the test with AChE [6] (Catechin isolated from Dasiphora fruticosa, read-out: IC50) is 1040 µM; with AChE [6] (catechin isolated from Eugenia dysenterica), 42.39 mg/L.
As for `O=C(O[C@@H]1Cc2c(O)cc(O)cc2O[C@@H]1c1cc(O)c(O)c(O)c1)c1cc(O)c(O)c(O)c1` [epigallocatechin gallate], in the test with AChE [6] (literature value, no reference printed behind it, read-out: IC50), the half-inhibitory concentration (IC50) was 16.8 µM.
With `CC1=C(C=O)C(C)(C)CC=C1` [safranal], the “concentration showing maximum inhibition of AChE” value in the test on AChE [6] is 21.09 ± 0.17 µM.
Consider tannic acid, for which, in test [1] ([…] ATCI, PBS 200 mM pH 7.7, 37°C, mean ± SEM (n = 3), read-out: IC50), the IC50 was found to be 27 ± 2 µM. Further, on immobilized AChE [2], the Ka2 is on record as 0.1039±2.2×10^−4 1/s. Besides, the equilibrium dissociation constant (Kd) on immobilized AChE [2] (setting [8]) was found to be 11.4 µM. Also, on immobilized AChE [2] (two-state model), the Ka1 turned out to be 1400 ± 47 M⁻¹ s⁻¹ and the Kd1 stood at 0.03423 ± 0.017 s⁻¹. Also, at immobilized AChE [3], the “Molecule 1 ka1” value stood at 231.1 ± 3.3 M⁻¹ s⁻¹ and the “Molecule 1 kd1” value stood at 2.685e-05 ± 2.9e-08 s⁻¹. For the same molecule, at immobilized AChE [3] (setting [11]), the “Molecule 1 ka1” value turned out to be 1.687e-05 ± 3.7e+06 M⁻¹ s⁻¹ and the “Molecule 1 kd1” value is 0.01266 ± 0.028 s⁻¹. In addition, on immobilized AChE [3] (pair tannic acid (molecule 1) and ATCI (molecule 2), 1:1, read-out: Molecule 1 KD), the Kd came to 0.0751 µM. Further, the dissociation constant (Kd) at immobilized AChE [3] (read-out: Molecule 1 KD) was found to be 0.116 µM. On AChE [4], the “Turns of AChE” value was determined as 14.8±0.08%, the “α helix of AChE” value turned out to be 5.1±0.039%, the “Random of AChE” value is given as 49.5±0.70% and the “β sheets of AChE” value stood at 30.6±0.19%. For the same molecule, at AChE [5], the “change in fluorescence emission of AChE” value is “redshift”. Further, the “reduced AChE activity” value in test [7] is on record as 37%.

Source of the values: PMC6544338, “Comparative biophysical characterization: A screening tool for acetylcholinesterase inhibitors” (PLoS ONE, 2019).
